ChEMBL document CHEMBL1125906, “Three-dimensional structure-activity relationships and receptor mapping of N1-substituents of quinolone antibacterials” (1991)

Test system: Escherichia coli
Test: Biological activity against Escherichia coli N1HJ JC-2 relative to Norfloxacin.
Assay type: functional

Row | Structure (SMILES) | activity relative to norfloxacin
1 | CN1CCN(c2cc3c(cc2F)c(=O)c(C(=O)O)cn3-c2ccc(F)cc2F)CC1 | 4
2 | CN1CCN(c2cc3c(cc2F)c(=O)c(C(=O)O)cn3-c2ccc(Br)cc2)CC1 | 0.0312
3 | O=C(O)c1c(=O)c2cc(F)c(N3CCNCC3)cc2n2ccsc12 | 4
4 | C=CCn1cc(C(=O)O)c(=O)c2cc(F)c(N3CCNCC3)cc21 | 0.25
5 | O=C(O)c1cn(CCO)c2cc(N3CCNCC3)c(F)cc2c1=O | 0.25
6 | Cc1ccc(-n2cc(C(=O)O)c(=O)c3cc(F)c(N4CCN(C)CC4)cc32)cc1 | 0.25
7 | Cn1cc(C(=O)O)c(=O)c2cc(F)c(N3CCNCC3)cc21 | 0.25
8 | O=C(O)c1cn(CCF)c2cc(N3CCNCC3)c(F)cc2c1=O | 4
9 | CN1CCN(c2cc3c(cc2F)c(=O)c(C(=O)O)c2n3CCS2)CC1 | 4
10 | CN1CCN(c2cc3c(cc2F)c(=O)c(C(=O)O)cn3-c2ccc3c(c2)OCO3)CC1 | 0.25
11 | CN1CCN(c2cc3c(cc2F)c(=O)c(C(=O)O)cn3-c2ccccc2)CC1 | 0.25
12 | CN1CCN(c2cc3c(cc2F)c(=O)c(C(=O)O)cn3-c2ccccc2F)CC1 | 0.25
13 | CCCn1cc(C(=O)O)c(=O)c2cc(F)c(N3CCNCC3)cc21 | 0.25
14 | CN1CCN(c2cc3c(cc2F)c(=O)c(C(=O)O)cn3-c2cccc(F)c2)CC1 | 0.0312
15 | O=C(O)c1cn(Cc2ccccc2)c2cc(N3CCNCC3)c(F)cc2c1=O | 0.25
16 | C=Cn1cc(C(=O)O)c(=O)c2cc(F)c(N3CCNCC3)cc21 | 4
17 | Cc1csc2c(C(=O)O)c(=O)c3cc(F)c(N4CCNCC4)cc3n12 | 4
18 | CN1CCN(c2cc3c(cc2F)c(=O)c(C(=O)O)cn3-c2ccc(Cl)cc2)CC1 | 0.25
19 | COc1ccc(-n2cc(C(=O)O)c(=O)c3cc(F)c(N4CCN(C)CC4)cc32)cc1 | 0.004
20 | Cc1ccccc1-n1cc(C(=O)O)c(=O)c2cc(F)c(N3CCN(C)CC3)cc21 | 0.25
21 | CN(C)CCn1cc(C(=O)O)c(=O)c2cc(F)c(N3CCNCC3)cc21 | 0.0312
22 | CN1CCN(c2cc3c(cc2F)c(=O)c(C(=O)O)cn3-c2ccc(O)cc2)CC1 | 4
23 | Cc1cccc(C)c1-n1cc(C(=O)O)c(=O)c2cc(F)c(N3CCN(C)CC3)cc21 | < 0.004
24 | CNn1cc(C(=O)O)c(=O)c2cc(F)c(N3CCN(C)CC3)cc21 [AMIFLOXACIN] | 4
25 | O=C(O)c1cn(C2CC2)c2cc(N3CCNCC3)c(F)cc2c1=O [CIPROFLOXACIN] | 4
26 | C[C@@H]1COc2c(N3CCN(C)CC3)c(F)cc3c(=O)c(C(=O)O)cn1c23 [DEXTROFLOXACINE] | 0.25
27 | CN1CCN(c2cc3c(cc2F)c(=O)c(C(=O)O)cn3-c2ccc(F)cc2)CC1 [DIFLOXACIN] | 4
28 | C[C@H]1COc2c(N3CCN(C)CC3)c(F)cc3c(=O)c(C(=O)O)cn1c23.C[C@H]1COc2c(N3CCN(C)CC3)c(F)cc3c(=O)c(C(=O)O)cn1c23.O [LEVOFLOXACIN] | 4
29 | CCn1cc(C(=O)O)c(=O)c2cc(F)c(N3CCNCC3)cc21 [NORFLOXACIN] | 4
